Some test systems named below: SK-MEL-5; NCI-H522; NCI/ADR-RES; SW-620; 786-0; EKVX; UACC-62; HCC 2998; HOP-92; HL-60; OVCAR-4; NCI-H23; MOLT-4; CAKI-1; Hs-578T; SK-MEL-2; MCF7; SN12C; HCT-116.
What all share (assay): growth of human tumour cells (NCI), 48 h

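Tested at 5 concentrations; 48 h exposure; 96-well plates; endpoints linearly interpolated, else capped at highest concentration. Here, GI50 denotes the concentration required for 50% inhibition of growth.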 The source made the active and inactive calls. Rule as the data show it: active = GI50 up to about 1.1 µM and inactive = higher.

As for `O=C1Nc2ccccc2Cn2c1cc1oc(-c3ccccc3)cc12`, the GI50 with SK-MEL-5 is 7.57 µM (inactive); with NCI-H522 it was 43.2 µM (inactive); with NCI/ADR-RES, 45.5 µM (inactive); in the experiment with SW-620 it was > 100 µM (inactive); in the experiment on 786-0 it was 20.4 µM (inactive); in the experiment on EKVX it was 33.7 µM (inactive). The GI50 was 34.1 µM (inactive) with UACC-62; > 100 µM (inactive) in the experiment on HCC 2998; 31.3 µM (inactive) in the experiment with HOP-92; > 100 µM (inactive) in the experiment on HL-60; 28.8 µM (inactive) in the experiment with OVCAR-4; 86.9 µM (inactive) in the experiment with NCI-H23. Further, the GI50 with MOLT-4 is > 100 µM (inactive); in the experiment with CAKI-1, 30 µM (inactive); in the experiment with Hs-578T it was 10.9 µM (inactive); with SK-MEL-2 it was 44.2 µM (inactive); in the experiment on MCF7 it was 10.8 µM (inactive); in the experiment with SN12C, 27.4 µM (inactive).
Take `COc1cc(/C=C/C(=O)OC[C@]23O[C@H]2[C@@H](OC2OC(C)C(O)C(O)C2O)C2C=CO[C@@H](OC4OC(CO)C(O)C(O)C4O)C23)ccc1O` (some centres not stated): the GI50 in the experiment on SK-MEL-5, in the experiment on NCI-H522, with NCI/ADR-RES, in the experiment with SW-620, in the experiment on 786-0 and in the experiment on EKVX was > 100 µM (inactive) each time. Besides, the GI50 with UACC-62, in the experiment with HCC 2998, in the experiment on HOP-92, with HL-60, with OVCAR-4 and in the experiment with NCI-H23 was > 100 µM (inactive) throughout. Further, the GI50 in the experiment on MOLT-4, in the experiment on Hs-578T, in the experiment with HCT-116, in the experiment on SK-MEL-2, with MCF7 and with SN12C was > 100 µM (inactive) throughout.
On to `O=c1[nH]c(=O)n(C2OC(CO)C(O)C(F)C2O)cc1F` (configuration not stated), for which the GI50 with SK-MEL-5, with NCI-H522, in the experiment with NCI/ADR-RES, in the experiment with SW-620, in the experiment on 786-0 and with UACC-62 was > 100 µM (inactive) throughout. Further, the GI50 was > 100 µM (inactive) with HCC 2998; > 100 µM (inactive) in the experiment with HOP-92; > 100 µM (inactive) with HL-60; > 100 µM (inactive) in the experiment with OVCAR-4; > 100 µM (inactive) in the experiment on NCI-H23; 0.0803 µM (active) in the experiment with MOLT-4. The GI50 in the experiment with CAKI-1, with Hs-578T, with HCT-116, in the experiment with SK-MEL-2, with MCF7 and in the experiment on SN12C was > 100 µM (inactive) throughout.
On to `Cc1ccc(C)c(NC(=O)C(=O)C(c2cnc3ccc([N+](=O)[O-])cc3n2)[N+](=O)[O-])c1` (configuration not stated), for which the GI50 was 48.3 µM (inactive) with SK-MEL-5; 21.1 µM (inactive) in the experiment with NCI-H522; 25.8 µM (inactive) in the experiment on NCI/ADR-RES; 30 µM (inactive) in the experiment on SW-620; 52.8 µM (inactive) with 786-0; 30.8 µM (inactive) in the experiment with EKVX. In addition, the GI50 in the experiment on UACC-62 was 64.1 µM (inactive); with HCC 2998, 55.8 µM (inactive); in the experiment on HOP-92 it was 36.2 µM (inactive); in the experiment with HL-60 it was 14.9 µM (inactive); in the experiment with OVCAR-4 it was 17.3 µM (inactive); in the experiment on NCI-H23, > 100 µM (inactive). Further, the GI50 is 25.9 µM (inactive) with MOLT-4; > 100 µM (inactive) in the experiment with Hs-578T; 58.6 µM (inactive) with HCT-116; > 100 µM (inactive) in the experiment with SK-MEL-2; > 100 µM (inactive) in the experiment with MCF7; 59.7 µM (inactive) with SN12C.
Consider `CCOC(=O)NC(NNc1ccc([N+](=O)[O-])cc1[N+](=O)[O-])(C(F)(F)F)C(F)(F)F`, for which the GI50 is 60.8 µM (inactive) with SK-MEL-5; 30.5 µM (inactive) in the experiment on NCI-H522; 33.3 µM (inactive) in the experiment on NCI/ADR-RES; 40.3 µM (inactive) in the experiment on SW-620; 43.9 µM (inactive) with 786-0; 41.8 µM (inactive) with EKVX. Further, the GI50 with UACC-62 was 74.5 µM (inactive); in the experiment with HCC 2998, 23.3 µM (inactive); in the experiment with HOP-92, 12.7 µM (inactive); with HL-60, 14.4 µM (inactive); in the experiment on NCI-H23 it was 31.7 µM (inactive); with MOLT-4 it was 28.1 µM (inactive). Besides, the GI50 with CAKI-1 was 33 µM (inactive); with Hs-578T, 34.4 µM (inactive); in the experiment on HCT-116, 32.1 µM (inactive); in the experiment on SK-MEL-2, 47 µM (inactive); with MCF7, 62.5 µM (inactive); in the experiment with SN12C, 27.7 µM (inactive).
Turning to `COc1cc(O)c(/C=N/N=C(\N)NO)c(OC)c1`, the GI50 in the experiment on SK-MEL-5 is > 10 µM (inactive); in the experiment with NCI-H522, > 10 µM (inactive); in the experiment on NCI/ADR-RES, 5.04 µM (inactive); in the experiment with SW-620, > 10 µM (inactive); with 786-0, > 10 µM (inactive); in the experiment on EKVX it was > 10 µM (inactive). Besides, the GI50 in the experiment on UACC-62 was 9.71 µM (inactive); in the experiment with HCC 2998 it was > 10 µM (inactive); with HOP-92, > 10 µM (inactive); in the experiment with HL-60, > 10 µM (inactive); with OVCAR-4 it was > 10 µM (inactive); in the experiment on NCI-H23, > 10 µM (inactive). Also, the GI50 with CAKI-1 was > 10 µM (inactive); in the experiment on Hs-578T, > 10 µM (inactive); in the experiment with HCT-116, 6.19 µM (inactive); with SK-MEL-2 it was > 10 µM (inactive); in the experiment with MCF7, > 10 µM (inactive); in the experiment with SN12C, > 10 µM (inactive).
For the compound `N#CCc1n[nH]c2nc(SCc3ccccc3)nc(N3CCCCC3)c12`, the GI50 in the experiment on SK-MEL-5 is 18.5 µM (inactive); in the experiment with NCI-H522, 19.3 µM (inactive); with NCI/ADR-RES, 17.6 µM (inactive); in the experiment with SW-620 it was 19.5 µM (inactive); in the experiment on 786-0, 17.3 µM (inactive); in the experiment with EKVX it was 20.5 µM (inactive). The GI50 with HCC 2998 was 17.5 µM (inactive); in the experiment with HOP-92, 16.6 µM (inactive); with HL-60 it was 25.8 µM (inactive); with OVCAR-4 it was 19.5 µM (inactive); in the experiment on NCI-H23, 18.5 µM (inactive); with MOLT-4 it was 20.6 µM (inactive). The GI50 with CAKI-1 was 19.9 µM (inactive); in the experiment with Hs-578T it was 21.4 µM (inactive); with HCT-116, 17.7 µM (inactive); with SK-MEL-2 it was 20.7 µM (inactive); with MCF7 it was 21.9 µM (inactive); in the experiment with SN12C, 13 µM (inactive).
As to `COC(=O)c1cc2c(cc1C(=O)OC)[C@@]1(C)CCCC(C)(C)C1CC2` (some centres not stated), the GI50 is 16.2 µM (inactive) in the experiment on SK-MEL-5; 16.9 µM (inactive) in the experiment on NCI-H522; 16.3 µM (inactive) in the experiment on NCI/ADR-RES; 18.7 µM (inactive) in the experiment on SW-620; 19.5 µM (inactive) with 786-0; 13.3 µM (inactive) in the experiment with EKVX. The GI50 was 12.2 µM (inactive) in the experiment with UACC-62; 17.4 µM (inactive) in the experiment with HCC 2998; 9.91 µM (inactive) in the experiment on HOP-92; 8.77 µM (inactive) in the experiment with HL-60; 22.4 µM (inactive) with OVCAR-4; 30.5 µM (inactive) in the experiment with NCI-H23. Further, the GI50 in the experiment on MOLT-4 is 15.1 µM (inactive); in the experiment with Hs-578T, 17.7 µM (inactive); in the experiment with HCT-116, 17.9 µM (inactive); in the experiment with SK-MEL-2 it was 17.1 µM (inactive); in the experiment on MCF7, 15 µM (inactive); in the experiment on SN12C, 19.3 µM (inactive).
As for `Cc1ccc(Cl)c2c1NC(=O)/C2=N\Nc1ccccc1[N+](=O)[O-]`, the GI50 was 57.1 µM (inactive) with NCI/ADR-RES; 27 µM (inactive) with SW-620; 28.8 µM (inactive) in the experiment on 786-0; 40.2 µM (inactive) with EKVX; 31.4 µM (inactive) in the experiment on UACC-62; 36.9 µM (inactive) in the experiment with HCC 2998. For the same compound, the GI50 with HOP-92 was 42.5 µM (inactive); with HL-60 it was 25.5 µM (inactive); with OVCAR-4, 96.6 µM (inactive); with NCI-H23, 47.6 µM (inactive); with MOLT-4, 37.3 µM (inactive); with CAKI-1, > 100 µM (inactive). Further, the GI50 with Hs-578T is 22.4 µM (inactive); in the experiment on HCT-116, 36.3 µM (inactive); with SK-MEL-2, > 100 µM (inactive); with MCF7, 36.3 µM (inactive); in the experiment on SN12C it was > 100 µM (inactive).
For `c1ccc(-c2cs[s+]c2)cc1`, the GI50 was > 100 µM (inactive) in the experiment with SK-MEL-5; 46.2 µM (inactive) in the experiment with NCI-H522; > 100 µM (inactive) with NCI/ADR-RES; 49.5 µM (inactive) in the experiment with SW-620; > 100 µM (inactive) with 786-0; > 100 µM (inactive) in the experiment with EKVX. Moreover, the GI50 with UACC-62 was > 100 µM (inactive); with HCC 2998, > 100 µM (inactive); in the experiment with HOP-92 it was > 100 µM (inactive); in the experiment with HL-60 it was 41.9 µM (inactive); with OVCAR-4, > 100 µM (inactive); with NCI-H23, > 100 µM (inactive). Moreover, the GI50 is 26.5 µM (inactive) in the experiment with MOLT-4; > 100 µM (inactive) with CAKI-1; > 100 µM (inactive) in the experiment with Hs-578T; > 100 µM (inactive) in the experiment with HCT-116; > 100 µM (inactive) with MCF7; > 100 µM (inactive) with SN12C.
Take `Oc1c2c(c(O)c3ccccc13)C1(N=N2)c2ccccc2Oc2ccccc21`: the GI50 is 13 µM (inactive) in the experiment with SK-MEL-5; 1.98 µM (inactive) with NCI-H522; 9.57 µM (inactive) with NCI/ADR-RES; 3.64 µM (inactive) in the experiment with SW-620; 3.2 µM (inactive) in the experiment with 786-0; 13 µM (inactive) in the experiment with EKVX. Besides, the GI50 with UACC-62 is 11.1 µM (inactive); in the experiment with HCC 2998 it was 18.7 µM (inactive); in the experiment on HOP-92, 15.8 µM (inactive); with HL-60, 7.03 µM (inactive); in the experiment on NCI-H23 it was 15.2 µM (inactive); in the experiment on MOLT-4, 4.17 µM (inactive). Moreover, the GI50 is 10.3 µM (inactive) with CAKI-1; 5.56 µM (inactive) with Hs-578T; 3.17 µM (inactive) with HCT-116; 12 µM (inactive) in the experiment with SK-MEL-2; 3.09 µM (inactive) in the experiment on MCF7; 6.46 µM (inactive) with SN12C.
